How the values were obtained:
CYP2C19 = CYP2C19 (Homo sapiens, UniProt P33261); assay: biochemical
Procedure: (§1) The ability of the compounds described herein to inhibit cytochrome P450 activity was determined in vitro using cDNA-expressed human cytochrome P450 enzymes (Supersomes) obtained from GENTEST Corporation and various fluorescent probe substrates. Fluorometric Cytochrome P450 Inhibition assays were conducted in 96 well micotitre plates as described by GENTEST Corporation, Woburn Mass. […] Compounds were dissolved in 70% DMSO such that the concentration of DMSO in the assay was 0.7%. Varying concentrations of all test compounds (10 μM, 3 μM, 1 μM, 300 nM and 100 nM) were incubated with Supersomes individually expressing the five principal drug metabolizing cytochrome P450s, CYP1A2, 2C9, 2C19, 2D6, and 3A4 and their respective substrates. […] Incubations with known inhibitors of each P450 isoform were included as positive controls. Fluorescence per well was measured using a Spectramax Gemini XS (Molecular Devices) and IC50 values of the compounds tested were determined using the 5 point dose response. The sigmoidal dose response curves were generated by non linear regression using a four parameter logistic equation.

CYP2C9 = target: T1, CYP2C9 (Homo sapiens, UniProt P11712); assay: Fluorometric cytochrome P450 inhibition assay, CYP2C9; format: in vitro ADME; details: cDNA-expressed human CYP2C9 Supersomes, substrate DBF, 5 point dose response; read-out: CYP2C9 Inh. IC50
T1 construct: purchased GENTEST Corporation P258
Procedure: The ability of the compounds described herein to inhibit cytochrome P450 activity was determined in vitro using cDNA-expressed human cytochrome P450 enzymes (Supersomes) obtained from GENTEST Corporation and various fluorescent probe substrates. Fluorometric Cytochrome P450 Inhibition assays were conducted in 96 well micotitre plates as described by GENTEST Corporation, Woburn Mass. […] Compounds were dissolved in 70% DMSO such that the concentration of DMSO in the assay was 0.7%. […] Incubations with known inhibitors of each P450 isoform were included as positive controls. Fluorescence per well was measured using a Spectramax Gemini XS (Molecular Devices) and IC50 values of the compounds tested were determined using the 5 point dose response. The sigmoidal dose response curves were generated by non linear regression using a four parameter logistic equation.

CYP1A2 = target: T2, CYP1A2 (Homo sapiens, UniProt P05177); assay: biochemical
T2 sequence (P05177 1-516): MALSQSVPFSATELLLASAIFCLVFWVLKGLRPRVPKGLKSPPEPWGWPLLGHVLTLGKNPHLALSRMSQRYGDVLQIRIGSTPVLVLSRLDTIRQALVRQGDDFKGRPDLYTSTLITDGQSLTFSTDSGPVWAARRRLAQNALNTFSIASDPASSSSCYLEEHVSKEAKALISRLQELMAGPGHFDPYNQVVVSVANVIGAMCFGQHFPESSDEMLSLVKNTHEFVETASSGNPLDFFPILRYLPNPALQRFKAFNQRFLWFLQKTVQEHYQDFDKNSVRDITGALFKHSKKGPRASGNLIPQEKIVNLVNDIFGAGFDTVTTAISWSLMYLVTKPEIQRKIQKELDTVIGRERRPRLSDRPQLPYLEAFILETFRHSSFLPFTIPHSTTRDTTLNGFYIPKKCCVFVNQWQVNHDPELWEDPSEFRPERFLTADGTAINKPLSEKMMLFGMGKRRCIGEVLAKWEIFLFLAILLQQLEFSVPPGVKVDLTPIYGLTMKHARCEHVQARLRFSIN
Procedure: as §1

CYP2D6 = CYP2D6 (Homo sapiens, UniProt P10635); assay: biochemical
Chain of CYP2D6 (P10635 whole entry): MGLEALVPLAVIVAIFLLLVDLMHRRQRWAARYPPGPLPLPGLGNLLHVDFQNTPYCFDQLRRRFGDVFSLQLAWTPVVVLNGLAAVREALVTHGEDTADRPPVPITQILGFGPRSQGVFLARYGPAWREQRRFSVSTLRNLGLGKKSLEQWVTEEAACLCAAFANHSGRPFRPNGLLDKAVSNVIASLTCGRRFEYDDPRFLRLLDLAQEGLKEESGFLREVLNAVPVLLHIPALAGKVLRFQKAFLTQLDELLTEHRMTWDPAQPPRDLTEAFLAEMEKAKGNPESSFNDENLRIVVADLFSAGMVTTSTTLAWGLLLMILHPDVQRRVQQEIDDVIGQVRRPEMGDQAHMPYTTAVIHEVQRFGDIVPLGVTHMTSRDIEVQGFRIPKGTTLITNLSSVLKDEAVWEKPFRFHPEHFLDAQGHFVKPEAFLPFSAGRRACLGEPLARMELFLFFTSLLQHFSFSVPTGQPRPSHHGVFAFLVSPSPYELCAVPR
Procedure: as §1

CYP3A4 = CYP3A4 (Homo sapiens, UniProt P08684); assay: biochemical
Chain of CYP3A4 (P08684 whole entry): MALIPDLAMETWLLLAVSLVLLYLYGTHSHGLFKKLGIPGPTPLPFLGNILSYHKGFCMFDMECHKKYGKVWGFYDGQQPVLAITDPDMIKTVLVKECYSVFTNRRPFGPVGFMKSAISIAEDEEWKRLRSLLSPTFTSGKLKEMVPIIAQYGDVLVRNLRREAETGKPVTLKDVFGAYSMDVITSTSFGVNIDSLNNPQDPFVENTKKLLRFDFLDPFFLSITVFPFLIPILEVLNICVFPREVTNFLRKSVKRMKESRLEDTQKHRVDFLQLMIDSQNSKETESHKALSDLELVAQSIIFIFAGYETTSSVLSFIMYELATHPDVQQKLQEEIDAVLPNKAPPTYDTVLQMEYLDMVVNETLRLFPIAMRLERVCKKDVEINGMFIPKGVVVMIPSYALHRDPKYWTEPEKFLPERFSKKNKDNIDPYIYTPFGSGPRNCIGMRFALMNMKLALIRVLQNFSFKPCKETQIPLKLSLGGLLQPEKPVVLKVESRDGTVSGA
Procedure: as §1

Chain of CYP2C19 (P33261 whole entry): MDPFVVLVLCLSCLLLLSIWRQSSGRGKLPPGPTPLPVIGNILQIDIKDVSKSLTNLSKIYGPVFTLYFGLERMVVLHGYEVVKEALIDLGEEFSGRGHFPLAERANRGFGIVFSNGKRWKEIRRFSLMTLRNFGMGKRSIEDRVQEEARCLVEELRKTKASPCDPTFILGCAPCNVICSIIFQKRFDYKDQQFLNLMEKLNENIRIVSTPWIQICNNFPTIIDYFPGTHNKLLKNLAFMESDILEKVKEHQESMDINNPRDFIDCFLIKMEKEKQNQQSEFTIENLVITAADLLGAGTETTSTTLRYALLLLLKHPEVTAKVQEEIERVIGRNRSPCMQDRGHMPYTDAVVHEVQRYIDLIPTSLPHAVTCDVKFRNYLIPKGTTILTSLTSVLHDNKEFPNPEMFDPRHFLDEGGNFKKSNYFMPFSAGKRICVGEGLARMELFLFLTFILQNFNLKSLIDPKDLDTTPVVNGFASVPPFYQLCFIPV
T1 sequence (P11712 whole entry): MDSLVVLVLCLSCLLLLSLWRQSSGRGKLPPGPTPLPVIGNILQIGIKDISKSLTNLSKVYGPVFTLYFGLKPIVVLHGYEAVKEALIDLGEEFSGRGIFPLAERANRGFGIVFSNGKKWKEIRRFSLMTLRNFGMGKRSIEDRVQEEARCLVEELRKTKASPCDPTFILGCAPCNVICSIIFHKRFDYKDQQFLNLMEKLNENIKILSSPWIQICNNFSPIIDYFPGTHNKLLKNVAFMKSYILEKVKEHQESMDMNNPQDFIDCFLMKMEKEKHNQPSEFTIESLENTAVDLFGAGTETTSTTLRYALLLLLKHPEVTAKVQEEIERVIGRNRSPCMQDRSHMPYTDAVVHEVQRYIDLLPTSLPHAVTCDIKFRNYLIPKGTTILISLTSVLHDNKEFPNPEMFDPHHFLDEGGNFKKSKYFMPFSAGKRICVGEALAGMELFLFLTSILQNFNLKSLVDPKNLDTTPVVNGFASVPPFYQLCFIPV

| SMILES | IC50 (CYP2C19) | IC50 (CYP2C9) | IC50 (CYP1A2) | IC50 (CYP2D6) | IC50 (CYP3A4) |
| --- | --- | --- | --- | --- | --- |
| Clc1ccc(Nc2nnc(Cc3ccncc3)c3ccccc23)cc1 [WO 98/35958 (Example 4), reference compound] | 0.24 µM | 0.65 µM | 1.49 µM | 0.33 µM |  |
| Clc1ccc(Nc2ncc(Cc3ccncc3)c3ccccc23)cc1 | 0.07 µM | 0.11 µM | 0.17 µM | 0.21 µM | 0.14 µM |
| NC(=O)c1cc(COC2=NN=C(Nc3ccc(Cl)cc3)C3C=CSC23)ccn1 (stereo not shown) | > 20 µM | 4.7 µM | 3.3 µM | 14 µM | 1 µM |
| CNC(=O)c1cc(COc2nnc(Nc3ccc4c(c3)OCC4)c3ccoc23)ccn1 | > 20 µM | > 20 µM | 11 µM | > 20 µM | 7.6 µM |
| CNC(=O)c1cc(COc2nnc(Nc3ccc4c(c3)CCC4)c3ccoc23)ccn1 | > 20 µM | 4 µM | 4.5 µM | > 20 µM | 0.48 µM |
| Clc1ccc(Nc2nnc(Nc3ccc4ncsc4c3)c3sccc23)cc1 | 9.9 µM | 3.9 µM | > 20 µM | > 20 µM | > 20 µM |
| Clc1ccc(NC2=NN=C(OCc3ccncc3)C3OC=CC23)cc1 (stereo not shown) | 1.7 µM | 0.68 µM | 0.66 µM | 0.78 µM | 0.39 µM |
| CNC(=O)c1cc(COc2nnc(Nc3ccc(F)cc3)c3ccoc23)ccn1 |  | > 20 µM | > 20 µM | > 20 µM | > 20 µM |
| NC(=O)c1cc(Cc2nnc(Nc3ccc(Cl)cc3)c3ccccc23)ccn1 | 15 µM | > 20 µM | > 20 µM | > 20 µM | 10 µM |
| CNC(=O)c1cc(COc2nnc(Nc3ccc(OC)cc3)c3ccoc23)ccn1 | > 20 µM | > 20 µM | 4.2 µM | > 20 µM | 1.8 µM |
| CNC(=O)c1cc(COc2nnc(Nc3ccc(Cl)cc3)c3ccccc23)ccn1 | > 20 µM | > 20 µM | > 20 µM | > 20 µM | > 20 µM |
| CNC(=O)c1cc(COC2=NN=C(Nc3ccc(Cl)cc3)C3C=COC23)ccn1 (stereo not shown) | > 20 µM | > 20 µM | > 20 µM | > 20 µM | 19 µM |
| NC(=O)c1cc(Cc2cnc(Nc3ccc(Cl)cc3)c3ccccc23)ccn1 | 1.2 µM | 1.9 µM | 3.3 µM | 15 µM | 1.2 µM |
| CNC(=O)c1cc(Cc2cnc(Nc3ccc(Cl)cc3)c3ccccc23)ccn1 | 0.85 µM | 1.6 µM | 3.8 µM | 10 µM | 1.3 µM |
| Clc1ccc(Nc2nnc(OCc3ccncc3)c3ccccc23)cc1 [WO 98/35958 (Example 50), reference compound] | 0.79 µM | 0.29 µM | 0.24 µM | 0.33 µM | 0.07 µM |
| Clc1ccc(NC2=NN=C(OCc3ccncc3)C3SC=CC23)cc1 (stereo not shown) | 7.5 µM | 0.46 µM | 0.5 µM | 0.4 µM | 0.12 µM |
| CNC(=O)c1cc(COC2=NN=C(Nc3ccc(Cl)cc3)C3C=CSC23)ccn1 (stereo not shown) | > 20 µM | > 20 µM | > 20 µM | > 20 µM | > 20 µM |
| CNC(=O)c1cc(COc2nnc(Nc3cccc(C)c3)c3ccsc23)ccn1 |  | > 20 µM | > 20 µM | > 20 µM | > 20 µM |
| O=C(NC1CC1)c1cc(COC2=NN=C(Nc3ccc(Cl)cc3)C3C=COC23)ccn1 (stereo not shown) | > 20 µM | > 20 µM | > 20 µM | > 20 µM | 3.3 µM |
| CN(C)C(=O)c1cc(COC2=NN=C(Nc3ccc(Cl)cc3)C3C=COC23)ccn1 (stereo not shown) | > 20 µM | > 20 µM | 3.5 µM | > 20 µM | 11 µM |
| NC(=O)c1cc(COC2=NN=C(Nc3ccc(Cl)cc3)C3C=COC23)ccn1 (stereo not shown) | > 20 µM | > 20 µM | 17 µM | > 20 µM | 2.1 µM |
| NC(=O)c1cc(COc2nnc(Nc3ccc(Cl)cc3)c3ccccc23)ccn1 | 5.4 µM | 0.95 µM | 1.5 µM | 1.3 µM | 0.42 µM |
| CNC(=O)c1cc(Cc2nnc(Nc3ccc(Cl)cc3)c3ccccc23)ccn1 | 11 µM | 5.7 µM | > 20 µM | > 20 µM | 2.2 µM |
